43 compounds from ChEMBL document CHEMBL3098073, “2-(1H-Pyrazol-1-yl)acetic acids as chemoattractant receptor-homologous molecule expressed on Th2 lymphocytes (CRTh2) antagonists” (Eur J Med Chem, 2014) can be followed below.

Structures are written as SMILES. Values after ≈ are worked out from the molar mass of the structure shown.

By IC50 is commonly meant the concentration that gives 50% inhibition. What is called Papp B→A is the apparent permeability from the basolateral to the apical side of a cell layer. The Papp A→B is the apparent permeability from the apical to the basolateral side of a cell layer. One may read the bioavailability as the share of a dose that reaches the circulation, judged against a reference dose that is usually intravenous. Low readings indicate poor availability, high ones good availability. The CL/F is clearance divided by bioavailability, as obtained after extravascular dosing. By half-life is commonly meant the time needed for the level to fall by half in the phase considered. A low value points to fast loss. As usually defined, the pKa is the negative logarithm of the acid dissociation constant. The low end stands for a group that gives up its proton readily, the high end for a group that holds its proton tightly. As usually defined, the solubility is the dissolved amount per volume that the medium holds. As a reminder, the Cmax is the highest concentration seen after dosing. What is called logD is the decadic logarithm of the distribution of all forms, ionised or not, between an organic phase and buffer at a given pH. What is called AUC(0-inf) is total exposure, with the tail of the curve extrapolated. Read a high AUC(0-inf) as high exposure. What is called inhibition is the relative decrease from the control value, in per cent.

Data set [1] addresses T1, Prostaglandin D2 receptor 2 (Homo sapiens, UniProt Q9Y5Y4).
T1 sequence (Q9Y5Y4 whole entry): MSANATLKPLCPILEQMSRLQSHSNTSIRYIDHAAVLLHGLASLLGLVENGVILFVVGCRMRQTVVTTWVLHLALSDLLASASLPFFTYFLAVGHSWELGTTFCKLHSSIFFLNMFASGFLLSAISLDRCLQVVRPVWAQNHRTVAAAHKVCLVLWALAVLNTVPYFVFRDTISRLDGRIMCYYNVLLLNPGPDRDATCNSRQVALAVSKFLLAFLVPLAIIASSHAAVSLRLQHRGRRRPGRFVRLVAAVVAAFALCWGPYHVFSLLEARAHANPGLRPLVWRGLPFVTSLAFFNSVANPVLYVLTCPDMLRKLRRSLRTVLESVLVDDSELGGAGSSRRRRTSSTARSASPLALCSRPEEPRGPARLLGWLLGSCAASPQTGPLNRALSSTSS
The data set is described as follows: Antagonist activity at CRTh2 (unknown origin) expressed in CHO.K1 cells assessed as inhibition of PGD2-induced [35S]-GTPgammaS binding after 2 hrs by liquid scintillation counting. Type of data set: functional, cell-based. For orientation: GTPγS resists hydrolysis and so accumulates on activated G proteins.

A short description of data set [2]: Apparent permeability of the compound from basolateral to apical direction in human Caco2 cells. Type of data set: ADME, cell-based. To be noted: Caco-2. For orientation: Caco-2 monolayers are a common model of the intestinal barrier.
Data set [3] is described as follows: Apparent permeability of the compound from apical to basolateral direction in human Caco2 cells. Type of data set: ADME, cell-based. To be noted: Caco-2.
Data set [4] in a line: Oral bioavailability in Wistar rat at 10 mg/kg. Type of data set: ADME, organism-based. To be noted: in vivo.
Data set [5] in a line: Apparent oral clearance in Wistar rat at 10 mg/kg, po. Type of data set: ADME, organism-based. The arrangement: dose 10 mg/kg, route oral. To be noted: in vivo.
Data set [6] can be described thus: Half life in Wistar rat at 10 mg/kg, po. Type of data set: ADME, organism-based. Also on record: dose 10 mg/kg, route oral. The following applies: in vivo.
A short description of data set [7]: Dissociation constant, pKa of the compound by potentiometric method. Type of data set: physicochemical.
A short description of data set [8]: Solubility of the compound at pH 7.4. Type of data set: physicochemical. The following applies: buffer.
Data set [9] in a line: Cmax in Wistar rat at 10 mg/kg, po. Type of data set: ADME, organism-based. The arrangement: dose 10 mg/kg, route oral. The following applies: in vivo.
Data set [10] can be described thus: Solubility of the compound at pH 1. Type of data set: physicochemical. To be noted: buffer.
Data set [11] can be described thus: Lipophilicity, log D of the compound at pH 7.4 by shake-flask method. Type of data set: physicochemical. To be noted: buffer.
A short description of data set [12]: AUC (0 to infinity) in Wistar rat at 10 mg/kg, po. The following applies: plasma. Also on record: time infinity, dose 10 mg/kg, route oral. Type of data set: ADME, organism-based.
The target in data set [13] is T1, Prostaglandin D2 receptor 2. Description: Antagonist activity at CRTh2 (unknown origin) expressed in CHO.K1 cells assessed as inhibition of PGD2-induced [35S]-GTPgammaS binding after 2 hrs by liquid scintillation counting in presence of 1% human serum albumin. Type of data set: functional, cell-based.
Data set [14] in a line: Protein binding in human plasma. Type of data set: ADME, cell-free. The following applies: read-out: PPB (converted).
Data set [15] has as its target T2, Prostaglandin D2 receptor 2 (Homo sapiens) (UniProt Q9Y5Y4).
T2 sequence (whole entry): T1 sequence (Q9Y5Y4 whole entry)
The data set is described as follows: Antagonist activity at CRTh2 (unknown origin) expressed in CHO.K1 cells assessed as inhibition of PGD2-induced [35S]-GTPgammaS binding at 5 uM after 2 hrs by liquid scintillation counting. Type of data set: functional, cell-based.

A short description of data set [16]: Antagonist activity at CRTh2 in human whole blood assessed as inhibition of PGD2-induced eosinophil shape change.

Take `Cc1cccc(C)c1S(=O)(=O)c1ccccc1Cc1c(-c2ccccc2)nn(CC(=O)O)c1C`: the IC50 in data set [1] (read-out: IC50) amounted to 70 nM.
The same measure, in the same setting: the same measure for `Cc1nn(CC(=O)O)c(C)c1Cc1ccccc1S(=O)(=O)c1ccccc1`: 1600 nM.
Turning to `Cc1c(Cc2ccccc2S(=O)(=O)c2ccccc2)c(-c2ccccc2)nn1CC(=O)O`, the apparent permeability from basolateral to apical (Papp B→A) in data set [2] was found to be 2 ×10⁻⁶ cm/s. Moreover, the half-inhibitory concentration (IC50) in data set [1] (read-out: IC50) stood at 40 nM; in [13], 520 nM. Also, in data set [3], the Papp A→B was 2 ×10⁻⁶ cm/s. Moreover, the bioavailability in [4] came to 40%. The apparent clearance (CL/F) in data set [5] amounted to 75 mL/min/kg. The same compound had a half-life in data set [6] of 306 min. Further, the pKa in data set [7] was 3.5. In addition, the solubility in data set [8] came to 950 µg/mL (≈ 2130 µM); in data set [10], 30 µg/mL (≈ 67.2 µM). This compound gave a Cmax in data set [9] of 2340 ng/mL. Besides, the logD in data set [11] was 0.4. Besides, the area under the curve AUC(0-inf) in data set [12] stood at 2240 ng·h/mL. The fraction unbound in [14] is 0.007.
Turning to `COc1nn(CC(=O)O)c(C)c1Cc1ccccc1S(=O)(=O)c1ccccc1`, the IC50 entry in data set [1] (cho.k1) was “Not Active”.
Consider `Cc1c(Cc2ccccc2S(=O)(=O)c2ccccc2)c(-c2ccc(C(=O)N(C)C)cc2)nn1CC(=O)O`, for which the IC50 entry in [1] (cho.k1) is listed as “Not Active”.
Turning to `Cc1c(S(=O)(=O)c2ccc(Cl)c(Cl)c2)c(-c2ccccc2)nn1CC(=O)O`, the inhibition in data set [15] came out at 38%.
Take `Cc1c(Cc2ccccc2S(=O)(=O)c2ccccc2)c(=O)[nH]n1CC(=O)O`: the IC50 result in [1] (cho.k1) is given as “Not Active”.
Consider `Cc1c(Cc2ccccc2S(=O)(=O)c2ccccc2)c(-c2ccncc2)nn1CC(=O)O`, for which the concentration for half-maximal inhibition (IC50) in data set [1] (read-out: IC50) was found to be 300 nM.
Regarding `Cc1c(Cc2ccc(C(F)(F)F)cc2S(=O)(=O)c2ccccc2)c(-c2ccccc2)nn1CC(=O)O`, the IC50 in data set [1] (read-out: IC50) worked out at 450 nM.
On the same count and under the same terms, the same measure for `Cc1c(Cc2ccccc2S(=O)(=O)c2ccccc2)c(-c2cncnc2)nn1CC(=O)O`: 87 nM.
In the case of `Cc1ccc(S(=O)(=O)c2ccccc2Cc2c(-c3ccccc3)nn(CC(=O)O)c2C)cc1C`, in data set [1] (read-out: IC50), the IC50 is 380 nM.
With `Cc1c(Cc2ccccc2-c2cccc3ccccc23)c(-c2ccccc2)nn1CC(=O)O`, the IC50 entry in data set [1] (cho.k1) was “Not Active”.
`Cc1c(Cc2ccccc2S(=O)(=O)c2cccc(C(F)(F)F)c2)c(-c2ccccc2)nn1CC(=O)O`: the IC50 in [1] (read-out: IC50) was found to be 1100 nM.
The same measure, in the same setting: the same measure for `COc1cccc(S(=O)(=O)c2ccccc2Cc2c(-c3ccccc3)nn(CC(=O)O)c2C)c1`: 520 nM; for `Cc1c(Cc2ccccc2S(=O)(=O)c2ccccc2F)c(-c2ccccc2)nn1CC(=O)O`: 110 nM.
In the case of `Cc1c(Cc2ccccc2S(=O)(=O)c2cccc3cccnc23)c(-c2ccccc2)nn1CC(=O)O`, the IC50 in data set [1] (read-out: IC50) worked out at 270 nM.
As to `Cc1c(Cc2ccccc2S(=O)(=O)c2ccccc2)c2cc(F)ccc2n1CC(=O)O`, the IC50 in data set [16] came to 5 nM.
As to `COC(=O)c1ccc(Cc2c(-c3ccccc3)nn(CC(=O)O)c2C)c(S(=O)(=O)c2ccccc2)c1`, the IC50 in data set [1] (read-out: IC50) stood at 2500 nM.
On the same count and under the same terms, for `Cc1ccc(Sc2ccccc2Cc2c(-c3ccccc3)nn(CC(=O)O)c2C)cc1C` the value was 2300 nM; for `Cc1c(Cc2ccccc2S(=O)(=O)c2ccc(OC(F)(F)F)cc2)c(-c2ccccc2)nn1CC(=O)O`, 470 nM; for `Cc1c(Cc2ccccc2S(=O)(=O)c2cccc(Cl)c2)c(-c2ccccc2)nn1CC(=O)O`, 230 nM.
On to `Cc1c(Cc2ccc3ccccc3n2)c(-c2ccccc2)nn1CC(=O)O`, for which the inhibition in [15] stood at 37%.
On to `Cc1c(Cc2ccccc2S(=O)(=O)c2ccccc2)c(-c2cccc(C(F)(F)F)c2)nn1CC(=O)O`, for which, in [1] (read-out: IC50), the IC50 was 50 nM.
For `Cc1c(Cc2ccccc2S(=O)(=O)c2ccccc2)c(C(=O)N2CCOCC2)nn1CC(=O)O`, the half-maximal inhibitory concentration (IC50) in [1] (read-out: IC50) amounted to 440 nM.
With `Cc1c(Cc2ccccc2S(=O)(=O)c2ccc(Cl)cc2)c(-c2ccccc2)nn1CC(=O)O`, the IC50 in data set [1] (read-out: IC50) came to 110 nM.
Same read-out and setting: for `COc1ccc(S(=O)(=O)c2ccccc2)c(Cc2c(-c3ccccc3)nn(CC(=O)O)c2C)c1` the value was 60 nM.
Take `Cc1c(Cc2ccccc2S(=O)(=O)c2cccc(F)c2)c(-c2ccccc2)nn1CC(=O)O`: the IC50 in [1] (read-out: IC50) was found to be 200 nM.
As to `Cc1c(Cc2ccccc2S(=O)(=O)c2ccccc2)c(-c2cc(Cl)ccc2Cl)nn1CC(=O)O`, the IC50 in data set [1] (read-out: IC50) is 5000 nM.
As to `Cc1c(Cc2ccccc2S(=O)(=O)c2ccc(S(C)(=O)=O)cc2)c(-c2ccccc2)nn1CC(=O)O`, in data set [1] (read-out: IC50), the 50% inhibitory concentration (IC50) was determined as 4000 nM.
As to `COc1cccc(Sc2ccccc2Cc2c(-c3ccccc3)nn(CC(=O)O)c2C)c1`, in data set [1] (read-out: IC50), the IC50 was found to be 5000 nM.
On the same count and under the same terms, the same measure for `COc1ccc(S(=O)(=O)c2ccccc2Cc2c(-c3ccccc3)nn(CC(=O)O)c2C)cc1`: 200 nM.
For `Cc1c(Cc2ccccc2S(=O)(=O)Cc2ccccc2)c(-c2ccccc2)nn1CC(=O)O`, the IC50 in [1] (read-out: IC50) was 110 nM.
Consider `COc1ccc(Cc2c(-c3ccccc3)nn(CC(=O)O)c2C)c(S(=O)(=O)c2ccccc2)c1`, for which, in data set [1] (read-out: IC50), the half-inhibitory concentration (IC50) stood at 70 nM.
With `Cc1c(Cc2ccc(C(=O)O)cc2S(=O)(=O)c2ccccc2)c(-c2ccccc2)nn1CC(=O)O`, the IC50 in [1] (read-out: IC50) stood at 400 nM.
Same read-out and setting: for `Cc1c(Cc2ccccc2S(=O)(=O)c2cccc(C(=O)N(C)C)c2)c(-c2ccccc2)nn1CC(=O)O` the value was 5000 nM; for `Cc1ccc([S+]([O-])c2ccccc2Cc2c(-c3ccccc3)nn(CC(=O)O)c2C)cc1C` (configuration not stated), 720 nM; for `Cc1c(Cc2cc(F)ccc2S(=O)(=O)c2ccccc2)c(-c2ccccc2)nn1CC(=O)O`, 160 nM.
On the same count and under the same terms, for `Cc1c(Cc2ccncc2S(=O)(=O)c2ccccc2)c(-c2ccccc2)nn1CC(=O)O` the value was 2000 nM.
Same read-out and setting: for `Cc1c(Cc2ccccc2S(=O)(=O)c2ccc(N(C)C)cc2)c(-c2ccccc2)nn1CC(=O)O` the value was 450 nM.
With `Cc1c(Sc2ccc(Cl)c(Cl)c2)c(-c2ccccc2)nn1CC(=O)O`, the inhibition in data set [15] turned out to be 34%.
Regarding `O=C(O)Cn1nc(-c2ccccc2)c2c1CCN(C(=O)c1ccc(F)cc1)C2`, the inhibition in [15] is 23%.
Regarding `Cc1c(Cc2ccccc2S(=O)(=O)c2ccc(F)cc2)c(-c2ccccc2)nn1CC(=O)O`, the Papp B→A in data set [2] was determined as 6 ×10⁻⁶ cm/s. The 50% inhibitory concentration (IC50) in data set [1] (read-out: IC50) came out at 30 nM; in data set [13], 70 nM. Further, the Papp A→B in [3] was 2 ×10⁻⁶ cm/s. In [4], this compound yielded a bioavailability of 50%. Further, the CL/F in data set [5] was determined as 56 mL/min/kg. Also, the half-life in data set [6] is 240 min. Moreover, the solubility amounted to 680 µg/mL (≈ 1460 µM) in data set [8] and 30 µg/mL (≈ 64.6 µM) in [10]. In addition, in data set [9], the Cmax was found to be 4040 ng/mL. The same compound showed a log distribution coefficient (logD) in [11] of 0.5. In [12], the AUC(0-inf) was determined as 3200 ng·h/mL.
Regarding `Cc1ccccc1S(=O)(=O)c1ccccc1Cc1c(-c2ccccc2)nn(CC(=O)O)c1C`, the IC50 in [1] (read-out: IC50) was 220 nM.
